The values below come from PubChem BioAssay (NCI).

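A five-concentration, 48-hour dose response in 96-well plates underlies each endpoint, interpolated linearly between surrounding concentrations. GI50 marks 50% less growth. TGI denotes the concentration required for complete inhibition of growth.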

Some test systems named below: A549 NSCLC; BT-549 breast; HL-60(TB) leukemia; HT29 colon; MOLT-4 leukemia; OVCAR-5 ovarian; SK-OV-3 ovarian; SR leukemia; TK-10 renal; UO-31 renal.
Common to all, as to assay: growth of human tumour cells (NCI), 48 h

`COc1ccc(C2SCC(=O)N2NC(=O)C(O)c2ccccc2)cc1OC` (centres undefined): the GI50 in the assay with A549 NSCLC, in the assay with BT-549 breast, in the assay with HL-60(TB) leukemia, in the assay with HT29 colon, in the assay on MOLT-4 leukemia and with OVCAR-5 ovarian was over 100000 nM throughout. The GI50 is over 100 µM with SK-OV-3 ovarian, 40900 nM in the assay on SR leukemia, over 100000 nM in the assay on TK-10 renal and over 100000 nM with UO-31 renal. The TGI with A549 NSCLC, with BT-549 breast, in the assay on HL-60(TB) leukemia, in the assay with HT29 colon, with MOLT-4 leukemia and with OVCAR-5 ovarian was over 100 µM throughout. The TGI in the assay with SK-OV-3 ovarian, in the assay with SR leukemia, in the assay on TK-10 renal and with UO-31 renal was over 100 µM each time.
In the case of `Oc1ccc(C(c2ccc(O)cc2)c2ccc(Cl)cn2)cc1`, the GI50 in the assay with A549 NSCLC was 1210 nM; in the assay with BT-549 breast, 23.1 nM; with HL-60(TB) leukemia it was 3560 nM; in the assay on HT29 colon, 4970 nM; in the assay with MOLT-4 leukemia, 23700 nM; with OVCAR-5 ovarian, 17600 nM. For the same compound, the GI50 is 18.6 µM with SK-OV-3 ovarian, 29500 nM in the assay with SR leukemia, 95.1 nM in the assay with TK-10 renal and 2040 nM in the assay on UO-31 renal. The TGI in the assay on A549 NSCLC was over 100 µM; in the assay on BT-549 breast, 0.0707 µM; in the assay on HL-60(TB) leukemia, 22 µM; with HT29 colon, over 100 µM; with MOLT-4 leukemia, over 100 µM; with OVCAR-5 ovarian, over 100 µM. The TGI in the assay on SK-OV-3 ovarian was over 100 µM; with SR leukemia, over 100 µM; with TK-10 renal, 0.525 µM; with UO-31 renal it was over 100 µM.
For `CC1(C)CC[C@H](Nc2ncc(C(F)(F)F)c(-c3c[nH]c4c(P(C)(C)=O)c(C#N)ccc34)n2)CN1`, the GI50 in the assay with A549 NSCLC is 184 nM; with BT-549 breast it was 75.8 nM; in the assay on HL-60(TB) leukemia it was under 10 nM; with HT29 colon, under 25.9 nM; in the assay on MOLT-4 leukemia, 214 nM; with OVCAR-5 ovarian, 144 nM. Besides, the GI50 in the assay on SK-OV-3 ovarian was 1.07 µM; in the assay with SR leukemia, under 10 nM; in the assay with TK-10 renal, 711 nM; in the assay with UO-31 renal it was 377 nM. In addition, the TGI in the assay with A549 NSCLC is 35.4 µM; in the assay on BT-549 breast, 3.67 µM; in the assay with HL-60(TB) leukemia it was 2.37 µM; in the assay with HT29 colon, over 27.7 µM; in the assay on MOLT-4 leukemia it was over 23.2 µM; in the assay with OVCAR-5 ovarian, over 37.7 µM. The figures for the TGI in the assay on SK-OV-3 ovarian, with TK-10 renal and in the assay with UO-31 renal were 5.46 µM, over 53.9 µM and 5.11 µM, respectively.
With `CCC(=O)O[C@H]1CC[C@H]2[C@@H]3CC[C@H]4CC(=O)[C@H](C)C[C@]4(C)[C@H]3CC[C@]12C`, the GI50 in the assay with A549 NSCLC is 19500 nM; in the assay on BT-549 breast, 37000 nM; in the assay on HL-60(TB) leukemia, 5570 nM; with HT29 colon it was 19200 nM; in the assay with MOLT-4 leukemia, 9110 nM; in the assay with OVCAR-5 ovarian, 74800 nM. In addition, the GI50 in the assay with SK-OV-3 ovarian is over 81.7 µM; in the assay with SR leukemia, 3210 nM; in the assay with TK-10 renal, 43700 nM; in the assay with UO-31 renal it was 24500 nM. Also, the TGI in the assay with A549 NSCLC is over 57.5 µM; in the assay with BT-549 breast, over 100 µM; in the assay on HL-60(TB) leukemia it was 24.3 µM; with HT29 colon it was over 100 µM; in the assay with MOLT-4 leukemia, over 85.6 µM; in the assay on OVCAR-5 ovarian, over 100 µM. For the same compound, the TGI is over 100 µM in the assay with SK-OV-3 ovarian, 21.8 µM with SR leukemia, over 100 µM in the assay with TK-10 renal and over 100 µM with UO-31 renal.
In the case of `COc1ccc(-c2oc3c(OC)c(OC)c(OC)c(O)c3c(=O)c2OC)cc1OC`, the TGI in the assay on A549 NSCLC was over 100 µM; in the assay with BT-549 breast, over 100 µM; with HL-60(TB) leukemia, 26.1 µM; with HT29 colon, over 78.2 µM; with MOLT-4 leukemia, 51.9 µM; in the assay with OVCAR-5 ovarian it was over 100 µM. Further, the TGI in the assay with SK-OV-3 ovarian is 63.8 µM; in the assay on SR leukemia, 45.1 µM; in the assay with TK-10 renal, over 100 µM; in the assay on UO-31 renal it was over 78.7 µM.
Turning to `CCCCS(=O)CCC(N)C(=O)O` (centres undefined), the TGI with A549 NSCLC, in the assay on BT-549 breast, in the assay on HL-60(TB) leukemia, with HT29 colon, in the assay with MOLT-4 leukemia and in the assay on OVCAR-5 ovarian was over 100 µM in each case. Further, the TGI in the assay with SK-OV-3 ovarian, with SR leukemia, with TK-10 renal and in the assay with UO-31 renal was over 100 µM in each case.
Turning to `C=CCN(/C=C1/C(=O)O[C@H](COC)[C@@]2(C)C1=C(O)C(=O)C1=C2[C@H](OC(C)=O)C[C@]2(C)C(=O)CC[C@@H]12)CC=C`, the GI50 in the assay with A549 NSCLC was 382 nM; in the assay with BT-549 breast, 141 nM; with HL-60(TB) leukemia, 286 nM; in the assay with HT29 colon it was 422 nM; in the assay on MOLT-4 leukemia it was 1050 nM; with OVCAR-5 ovarian, 1080 nM. Besides, the GI50 in the assay with SK-OV-3 ovarian is 0.331 µM; in the assay on SR leukemia, 708 nM; in the assay on TK-10 renal, 193 nM; in the assay with UO-31 renal it was 148 nM. In addition, the TGI in the assay with A549 NSCLC is over 8.15 µM; with BT-549 breast it was 4.12 µM; in the assay with HL-60(TB) leukemia, over 10 µM; in the assay with HT29 colon, over 10 µM; in the assay with MOLT-4 leukemia, over 10 µM; in the assay on OVCAR-5 ovarian, over 10 µM. Further, the TGI with SK-OV-3 ovarian was over 8.47 µM; with SR leukemia it was over 10 µM; with TK-10 renal it was over 7.79 µM; in the assay with UO-31 renal, over 10 µM.
For `O=C(c1ccc2ccccc2c1)c1c(C(F)(F)F)n([O-])c2cc(F)c(F)cc2[n+]1=O`, the GI50 is 4330 nM with A549 NSCLC; 1890 nM in the assay on BT-549 breast; 1370 nM in the assay with HL-60(TB) leukemia; 2340 nM in the assay on HT29 colon; 749 nM with MOLT-4 leukemia; 2010 nM in the assay on OVCAR-5 ovarian. The GI50 is 14.5 µM with SK-OV-3 ovarian, 450 nM in the assay with SR leukemia, 1760 nM with TK-10 renal and 1020 nM in the assay on UO-31 renal. Besides, the TGI in the assay on A549 NSCLC is 16.4 µM; with BT-549 breast, 4.17 µM; with HL-60(TB) leukemia it was 3.55 µM; with HT29 colon it was 5.29 µM; in the assay with MOLT-4 leukemia, 2.68 µM; in the assay on OVCAR-5 ovarian, 4.4 µM. Also, the TGI with SK-OV-3 ovarian was 27.9 µM; in the assay on SR leukemia it was 3.18 µM; in the assay on TK-10 renal, 3.41 µM; in the assay with UO-31 renal, 2.68 µM.
As to `CCCn1c(SC)nc(COC(=O)NC)c1COC(=O)NC`, the TGI in the assay on A549 NSCLC, with BT-549 breast, in the assay with HL-60(TB) leukemia, with HT29 colon, in the assay on MOLT-4 leukemia and with OVCAR-5 ovarian was over 100 µM each time. In addition, the TGI in the assay on SK-OV-3 ovarian, with SR leukemia, in the assay with TK-10 renal and in the assay with UO-31 renal was over 100 µM each time.
Take `CCOC(=O)C1=C(c2ccccc2)N(C)c2ccccc2S1`: the TGI in the assay on A549 NSCLC was over 100 µM; in the assay on BT-549 breast, 66.6 µM; in the assay on HL-60(TB) leukemia, over 100 µM; with HT29 colon, 46.1 µM; in the assay with MOLT-4 leukemia, over 100 µM; in the assay with OVCAR-5 ovarian it was over 100 µM. The TGI was over 100 µM in the assay with SK-OV-3 ovarian, over 100 µM with SR leukemia, over 100 µM with TK-10 renal and 81 µM in the assay with UO-31 renal.
For the compound `Cc1ccc(/C(=N\N=C(N)N)c2ccccc2)cc1`, the GI50 with A549 NSCLC was 433 nM; with BT-549 breast, 744 nM; with HL-60(TB) leukemia, 318 nM; in the assay with HT29 colon, 344 nM; with MOLT-4 leukemia, 796 nM; in the assay on OVCAR-5 ovarian it was 830 nM. Moreover, the GI50 in the assay with SK-OV-3 ovarian is 0.42 µM; with SR leukemia, 1830 nM; with TK-10 renal, 549 nM; with UO-31 renal, 1120 nM. For the same compound, the TGI in the assay with A549 NSCLC was 17.3 µM; in the assay with BT-549 breast, 7.62 µM; in the assay on HL-60(TB) leukemia, over 36.2 µM; in the assay with HT29 colon, 5.73 µM; in the assay on MOLT-4 leukemia, over 92.3 µM; in the assay on OVCAR-5 ovarian, 18.3 µM. The TGI in the assay on SK-OV-3 ovarian came out at 10.4 µM; in the assay with SR leukemia it was 24.8 µM; in the assay with TK-10 renal it was 15.1 µM; in the assay with UO-31 renal, 17.1 µM.
